Assay results reported in ChEMBL document CHEMBL1201862, “PubChem BioAssay data set” (2004).
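Test compounds were applied to cells in 96-well plates for 48 hours at 5 doses. GI50 is the concentration that inhibits growth by half.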 Activity calls are given as the source filed them. Rule as the data show it: active = GI50 up to about 1.1 µM and inactive = higher.

What was measured:
Test in all cases: NCI tumour cell line growth inhibition, 48 h
[1] = test system: 786-0
[2] = test system: A498
[3] = test system: A549
[4] = test system: ACHN
[5] = test system: CCRF-CEM
[6] = test system: COLO 205
[7] = test system: DLD-1
[8] = test system: DMS-114
[9] = test system: DMS-273
[10] = test system: EKVX
[11] = test system: HCC 2998
[12] = test system: HCT-116
[13] = test system: HCT-15
[14] = test system: HL-60
[15] = test system: HOP-18
[16] = test system: HOP-62
[17] = test system: HOP-92
[18] = test system: HT-29
[19] = test system: IGROV-1
[20] = test system: K562
[21] = test system: KM-20L2
[22] = test system: KM12
[23] = test system: LOX IMVI
[24] = test system: LXFL 529
[25] = test system: M14
[26] = test system: M19-MEL
[27] = test system: MOLT-4
[28] = test system: Malme-3M
[29] = test system: NCI-H226
[30] = test system: NCI-H23
[31] = test system: NCI-H460
[32] = test system: NCI-H522
[33] = test system: OVCAR-3
[34] = test system: OVCAR-4
[35] = test system: OVCAR-5
[36] = test system: OVCAR-8
[37] = test system: RPMI-8226
[38] = test system: RXF 393
[39] = test system: SF-268
[40] = test system: SF-295
[41] = test system: SF-539
[42] = test system: SK-MEL-28
[43] = test system: SK-MEL-2
[44] = test system: SK-MEL-5
[45] = test system: SK-OV-3
[46] = test system: SNB-78
[47] = test system: SR
[48] = test system: SW-620
[49] = test system: TK-10
[50] = test system: U-251
[51] = test system: UACC-257
[52] = test system: UACC-62
[53] = test system: UO-31
[54] = test system: XF498
[55] = test system: RXF 631
[56] = test system: SN12C
[57] = test system: SNB-19
[58] = test system: SNB-75

Question: How did the GI50 [1] turn out when `O=C(/C=C/c1ccc(O)c(O)c1)OC1C[C@@](O)(C(=O)O)C[C@@H](O)[C@H]1OC(=O)/C=C/c1ccc(O)c(O)c1` (stereo partly drawn) was run?
Answer: > 100 µM (inactive)

Question: And the GI50 [2]?
Answer: > 100 µM (inactive)

Question: And the GI50 [3]?
Answer: > 100 µM (inactive)

Question: And the GI50 [4]?
Answer: > 100 µM (inactive)

Question: And the GI50 [5]?
Answer: > 100 µM (inactive)

Question: And the GI50 [6]?
Answer: > 100 µM (inactive)

Question: What about the GI50 [7] of the same compound?
Answer: > 100 µM (inactive)

Question: And the GI50 [8]?
Answer: > 100 µM (inactive)

Question: What about the GI50 [9] of the same compound?
Answer: > 100 µM (inactive)

Question: And the GI50 [10]?
Answer: > 100 µM (inactive)

Question: And the GI50 [11]?
Answer: > 100 µM (inactive)

Question: What about the GI50 [12] of the same compound?
Answer: > 100 µM (inactive)

Question: What about the GI50 [13] of the same compound?
Answer: > 100 µM

Question: And the GI50 [14]?
Answer: > 100 µM (inactive)

Question: What about the GI50 [15] of the same compound?
Answer: > 100 µM (inactive)

Question: And the GI50 [16]?
Answer: > 100 µM (inactive)

Question: What about the GI50 [17] of the same compound?
Answer: > 100 µM (inactive)

Question: What about the GI50 [18] of the same compound?
Answer: > 100 µM (inactive)

Question: What about the GI50 [19] of the same compound?
Answer: > 100 µM (inactive)

Question: And the GI50 [20]?
Answer: > 100 µM (inactive)

Question: And the GI50 [21]?
Answer: 37.1 µM (inactive)

Question: What about the GI50 [22] of the same compound?
Answer: > 100 µM (inactive)

Question: And the GI50 [23]?
Answer: > 100 µM (inactive)

Question: What about the GI50 [24] of the same compound?
Answer: > 100 µM (inactive)

Question: What about the GI50 [25] of the same compound?
Answer: > 100 µM (inactive)

Question: What about the GI50 [26] of the same compound?
Answer: > 100 µM (inactive)

Question: What about the GI50 [27] of the same compound?
Answer: > 100 µM (inactive)

Question: And the GI50 [28]?
Answer: > 100 µM (inactive)

Question: What about the GI50 [29] of the same compound?
Answer: > 100 µM (inactive)

Question: And the GI50 [30]?
Answer: > 100 µM (inactive)

Question: What about the GI50 [31] of the same compound?
Answer: > 100 µM (inactive)

Question: What about the GI50 [32] of the same compound?
Answer: > 100 µM (inactive)

Question: And the GI50 [33]?
Answer: > 100 µM (inactive)

Question: And the GI50 [34]?
Answer: > 100 µM (inactive)

Question: What about the GI50 [35] of the same compound?
Answer: > 100 µM (inactive)

Question: And the GI50 [36]?
Answer: > 100 µM (inactive)

Question: What about the GI50 [37] of the same compound?
Answer: > 100 µM (inactive)

Question: What about the GI50 [38] of the same compound?
Answer: > 100 µM (inactive)

Question: What about the GI50 [39] of the same compound?
Answer: > 100 µM (inactive)

Question: What about the GI50 [40] of the same compound?
Answer: > 100 µM (inactive)

Question: What about the GI50 [41] of the same compound?
Answer: > 100 µM (inactive)

Question: And the GI50 [42]?
Answer: > 100 µM (inactive)

Question: And the GI50 [43]?
Answer: > 100 µM (inactive)

Question: And the GI50 [44]?
Answer: > 100 µM (inactive)

Question: And the GI50 [45]?
Answer: > 100 µM (inactive)

Question: And the GI50 [46]?
Answer: > 100 µM (inactive)

Question: And the GI50 [47]?
Answer: > 100 µM (inactive)

Question: And the GI50 [48]?
Answer: > 100 µM (inactive)

Question: What about the GI50 [49] of the same compound?
Answer: > 100 µM (inactive)

Question: What about the GI50 [50] of the same compound?
Answer: > 100 µM (inactive)

Question: What about the GI50 [51] of the same compound?
Answer: > 100 µM (inactive)

Question: What about the GI50 [52] of the same compound?
Answer: > 100 µM (inactive)

Question: What about the GI50 [53] of the same compound?
Answer: > 100 µM (inactive)

Question: What about the GI50 [54] of the same compound?
Answer: > 100 µM (inactive)

Question: For `O/N=C1\CCCCC1C(NO)c1ccccc1` (stereo not drawn), which GI50 [1] is on record?
Answer: > 100 µM (inactive)

Question: And the GI50 [2]?
Answer: > 100 µM (inactive)

Question: And the GI50 [3]?
Answer: > 100 µM (inactive)

Question: And the GI50 [4]?
Answer: > 100 µM (inactive)

Question: What about the GI50 [5] of the same compound?
Answer: > 100 µM (inactive)

Question: And the GI50 [6]?
Answer: > 100 µM (inactive)

Question: What about the GI50 [7] of the same compound?
Answer: > 100 µM (inactive)

Question: What about the GI50 [8] of the same compound?
Answer: 67 µM (inactive)

Question: And the GI50 [9]?
Answer: > 100 µM (inactive)

Question: What about the GI50 [10] of the same compound?
Answer: > 100 µM (inactive)

Question: And the GI50 [11]?
Answer: > 100 µM (inactive)

Question: And the GI50 [12]?
Answer: > 100 µM (inactive)

Question: And the GI50 [13]?
Answer: > 100 µM

Question: And the GI50 [14]?
Answer: 57.7 µM (inactive)

Question: And the GI50 [15]?
Answer: > 100 µM (inactive)

Question: And the GI50 [16]?
Answer: > 100 µM (inactive)

Question: What about the GI50 [17] of the same compound?
Answer: 42.7 µM (inactive)

Question: What about the GI50 [18] of the same compound?
Answer: > 100 µM (inactive)

Question: And the GI50 [19]?
Answer: > 100 µM (inactive)

Question: And the GI50 [20]?
Answer: > 100 µM (inactive)

Question: And the GI50 [21]?
Answer: > 100 µM (inactive)

Question: And the GI50 [22]?
Answer: > 100 µM (inactive)

Question: What about the GI50 [23] of the same compound?
Answer: > 100 µM (inactive)

Question: What about the GI50 [24] of the same compound?
Answer: > 100 µM (inactive)

Question: And the GI50 [25]?
Answer: > 100 µM (inactive)

Question: What about the GI50 [26] of the same compound?
Answer: > 100 µM (inactive)

Question: And the GI50 [27]?
Answer: 69.3 µM (inactive)

Question: And the GI50 [28]?
Answer: > 100 µM (inactive)

Question: What about the GI50 [30] of the same compound?
Answer: > 100 µM (inactive)

Question: What about the GI50 [31] of the same compound?
Answer: > 100 µM (inactive)

Question: And the GI50 [32]?
Answer: 81.5 µM (inactive)

Question: And the GI50 [33]?
Answer: > 100 µM (inactive)

Question: And the GI50 [34]?
Answer: > 100 µM (inactive)

Question: What about the GI50 [35] of the same compound?
Answer: > 100 µM (inactive)

Question: And the GI50 [36]?
Answer: > 100 µM (inactive)

Question: And the GI50 [37]?
Answer: > 100 µM (inactive)

Question: And the GI50 [38]?
Answer: > 100 µM (inactive)

Question: What about the GI50 [55] of the same compound?
Answer: > 100 µM (inactive)

Question: What about the GI50 [39] of the same compound?
Answer: 98.9 µM (inactive)

Question: What about the GI50 [40] of the same compound?
Answer: > 100 µM (inactive)

Question: And the GI50 [41]?
Answer: > 100 µM (inactive)

Question: What about the GI50 [42] of the same compound?
Answer: > 100 µM (inactive)

Question: And the GI50 [43]?
Answer: > 100 µM (inactive)

Question: What about the GI50 [45] of the same compound?
Answer: > 100 µM (inactive)

Question: And the GI50 [56]?
Answer: > 100 µM (inactive)

Question: What about the GI50 [57] of the same compound?
Answer: > 100 µM (inactive)

Question: What about the GI50 [58] of the same compound?
Answer: 23.7 µM (inactive)

Question: What about the GI50 [46] of the same compound?
Answer: > 100 µM (inactive)

Question: What about the GI50 [48] of the same compound?
Answer: > 100 µM (inactive)

Question: And the GI50 [49]?
Answer: > 100 µM (inactive)

Question: What about the GI50 [50] of the same compound?
Answer: > 100 µM (inactive)

Question: What about the GI50 [51] of the same compound?
Answer: > 100 µM (inactive)

Question: And the GI50 [52]?
Answer: > 100 µM (inactive)

Question: What about the GI50 [53] of the same compound?
Answer: 89.5 µM (inactive)
